Where “and” joins values, the source holds several entries; their conditions need not be identical. Equal entries are not always repeated. Where two headings read alike, the source gives them in different places.
Tests used:
human P-gp-His10 [1] = molecular target: T1, human P-gp-His10 (Homo sapiens, UniProt P08183)
[2] = tested on: MDCKII-MDR1 transfected cells, which over-express P-gp; settings: dog, MDCK-MDR1
P-gp = assay: in vitro; settings: dog, MDCK-MDR1
[3] = tested on: MDCKII-MDR1 transfected cells, which over-express P-gp; assay: Transport and cell association across monolayers of MDCKII-MDR1 cells; settings: 5 μM dye, 4.3 mg mL^−1 BSA (23-Se: no added BSA); for PAB (absorptive transport), + inh / PBA (secretory transport), + inh: + […] inhibitor 42
human P-gp-His10 [4] = molecular target: T1, human P-gp-His10; assay: Stimulation of human P-gp-His10 ATPase activity; settings: read-out: KM (apparent Michaelis-Menten constant, concentration for half maximal stimulation of ATPase activity)
log P = type: physicochemical; settings: n-octanol/water

T1 sequence (P08183 whole entry): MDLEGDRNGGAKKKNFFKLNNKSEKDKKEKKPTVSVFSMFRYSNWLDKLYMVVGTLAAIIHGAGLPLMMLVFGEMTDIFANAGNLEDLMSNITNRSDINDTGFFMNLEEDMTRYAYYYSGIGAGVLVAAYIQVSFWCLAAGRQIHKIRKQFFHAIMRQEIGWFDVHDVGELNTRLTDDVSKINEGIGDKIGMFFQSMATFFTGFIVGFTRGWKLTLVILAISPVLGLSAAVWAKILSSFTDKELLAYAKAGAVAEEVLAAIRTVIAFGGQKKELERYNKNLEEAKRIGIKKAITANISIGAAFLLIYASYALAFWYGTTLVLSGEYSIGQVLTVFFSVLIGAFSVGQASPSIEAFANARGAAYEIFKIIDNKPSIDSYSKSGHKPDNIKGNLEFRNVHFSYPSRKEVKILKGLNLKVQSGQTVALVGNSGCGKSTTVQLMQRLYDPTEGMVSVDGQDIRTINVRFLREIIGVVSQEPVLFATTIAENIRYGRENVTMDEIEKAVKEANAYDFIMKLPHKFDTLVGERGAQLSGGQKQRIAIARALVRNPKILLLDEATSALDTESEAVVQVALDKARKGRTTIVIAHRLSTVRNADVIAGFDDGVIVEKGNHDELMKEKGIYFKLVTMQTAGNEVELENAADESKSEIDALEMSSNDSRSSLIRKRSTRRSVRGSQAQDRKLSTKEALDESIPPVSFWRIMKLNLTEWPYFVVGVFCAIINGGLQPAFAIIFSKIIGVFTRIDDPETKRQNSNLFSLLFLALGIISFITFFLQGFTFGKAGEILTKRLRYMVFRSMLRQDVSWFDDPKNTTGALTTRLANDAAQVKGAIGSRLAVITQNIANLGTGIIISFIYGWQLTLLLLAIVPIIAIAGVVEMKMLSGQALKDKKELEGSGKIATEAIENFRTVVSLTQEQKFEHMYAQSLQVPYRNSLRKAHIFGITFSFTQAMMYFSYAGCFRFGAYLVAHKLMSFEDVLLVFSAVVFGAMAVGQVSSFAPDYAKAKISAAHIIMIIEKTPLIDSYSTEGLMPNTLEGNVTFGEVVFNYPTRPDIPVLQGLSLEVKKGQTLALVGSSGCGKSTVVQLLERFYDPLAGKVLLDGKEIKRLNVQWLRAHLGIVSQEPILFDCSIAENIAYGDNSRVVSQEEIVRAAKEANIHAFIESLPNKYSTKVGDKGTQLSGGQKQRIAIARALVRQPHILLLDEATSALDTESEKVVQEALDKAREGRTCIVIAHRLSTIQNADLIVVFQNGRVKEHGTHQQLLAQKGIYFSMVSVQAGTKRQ

Km (human P-gp-His10 [4]) [µM] | Compound | Km (human P-gp-His10 [1]) [µM] | further results
– | CN(C)c1ccc(-c2c3ccc(=[N+](C)C)cc-3[te]c3cc(N(C)C)ccc23)cc1 [Compound 5-Te] | 9 ± 0.8 | –
– | CN(C)c1ccc2c(-c3ccc(CCl)cc3)c3ccc(=[N+](C)C)cc-3oc2c1.[Br-] [TMR, tetramethylrosamine] | – | P BA/AB (ratio of secretory to absorptive transport), + inh [2]: 338 1.6; PAB (absorptive transport) [2]: 3.0 ± 0.1 14 ± 1 nm s^−1; PAB (absorptive transport), + inh [2]: 3.0 ± 0.1 14 ± 1 nm s^−1; PBA (secretory transport), + inh [2]: 1010 ± 10 21 ± 2 nm s^−1; Papp (P-gp): 1.7 ± 0.5 ×10⁻⁶ cm/s
– | CN(C)c1ccc2c(-c3ccccc3)c3ccc(=[N+](C)C)cc-3[te]c2c1 [Compound 1-Te] | 8.3 ± 0.8 | –
– | COc1cccc(-c2c3ccc(=[N+](C)C)cc-3[te]c3cc(N(C)C)ccc23)c1 [Compound 10-Te] | 3.2 ± 1 | –
– | CN(C)c1ccc2c(-c3ccccc3)c3ccc(=[N+](C)C)cc-3[se]c2c1 [Compound 1-Se] | 9.1 ± 1.1 | –
– | CN(C)c1cccc(-c2c3ccc(=[N+](C)C)cc-3[te]c3cc(N(C)C)ccc23)c1 [Compound 7-Te] | 2 ± 0.1 | –
– | CN(C)c1ccc(-c2c3ccc(=[N+](C)C)cc-3[se]c3cc(N(C)C)ccc23)cc1 [Compound 5-Se] | 10.1 ± 0.7 | –
3.9 ± 0.1 | COc1cccc(-c2c3ccc(=[N+](C)C)cc-3sc3cc(N(C)C)ccc23)c1 [Compound 10-S] | – | –
– | CN(C)c1cccc(-c2c3ccc(=[N+](C)C)cc-3[se]c3cc(N(C)C)ccc23)c1 [Compound 7-Se] | 3.5 ± 0.2 | –
8.3 ± 1.2 | CN(C)c1ccc(-c2c3ccc(=[N+](C)C)cc-3sc3cc(N(C)C)ccc23)cc1 [Compound 5-S] | – | –
3.4 ± 0.6 | CN(C)c1cccc(-c2c3ccc(=[N+](C)C)cc-3sc3cc(N(C)C)ccc23)c1 [Compound 7-S] | – | –
0.36 ± 0.08 | CN(C)c1ccc2c(-c3ccc(C(=S)N4CCCCC4)s3)c3ccc(N(C)C)cc3[s+]c2c1 [Compound 30-S, 3,6-Bis(dimethylamino)-9-(N-piperidyl-2-thienyl-5-thiocarboxamido)thioxanthylium Hexafluorophosphate] | – | –
– | COc1cccc(-c2c3ccc(=[N+](C)C)cc-3[se]c3cc(N(C)C)ccc23)c1 [Compound 10-Se] | 3.3 ± 0.6 | –

Compound | Km (human P-gp-His10 [4]) [µM] | Km (human P-gp-His10 [1]) [µM] | further results
CN(C)c1ccc2c(-c3ccc(C(=S)N4CCCCC4)s3)c3cc4c5c(c3[s+]c2c1)CCCN5CCC4.F[P-](F)(F)(F)(F)F [Compound 31-S, 12-(Dimethylamino)-2,3,6,7-tetrahydro-9-(N-Piperidyl-2-thienyl-5-thiocarboxamido)-1H,5H-thioxantheno[2,3,4-ij]quinolizin-14-ium Hexafluorophosphate] | 0.087 ± 0.012 | – | PAB (absorptive transport), + inh [3]: 0.8 ± 0.1 0.8 ± 0.1 nm s^−1; PBA (secretory transport), + inh [3]: 0.16 ± 0.01 ×10⁻⁶ cm/s; PBA (secretory transport) ([3]; no inhibitor): 5 ×10⁻⁶ cm/s and 5 ± 0.1 ×10⁻⁶ cm/s
CN(C)c1ccc2c(-c3ccc(C(=S)N4CCCCC4)s3)c3ccc(N(C)C)cc3[te+]c2c1.F[P-](F)(F)(F)(F)F [Compound 30-Te, 3,6-Bisa(dimethylamino)-9-(N-piperidyl-2-thienyl-5-thiocarboxamido)telluroxanthylium Hexafluorophosphate] | 0.41 ± 0.03 | – | log P (log P): 0.9; PAB (absorptive transport), + inh [3]: 1.2 ± 0.1 nm/s; PBA (secretory transport), + inh [3]: 0.2 ± 0.01 ×10⁻⁶ cm/s; PAB (absorptive transport) ([3]; no inhibitor): 0.09 ± 0.01 ×10⁻⁶ cm/s; PBA (secretory transport) ([3]; no inhibitor): 2.2 ± 0.8 ×10⁻⁶ cm/s
